Marks after values point to notes of the source that are not given here.
Experiments:
[1] = test system: rat model with carbon tetrachloride-induced liver cirrhosis; experiment: Rat model with carbon tetrachloride-induced liver cirrhosis, Experimental Example 1 (compound 1 0.3 mg/mL in potable water); assay type: in vivo
Experimental: (§1) To six-week-old Wister male rats, 3 mL/kg of olive oil containing 40% of carbon tetrachloride or olive oil only were subcutaneously administered twice per week for eight weeks. On a parallel with the administration of the carbon tetrachloride, potable water in which 2,3,5-trimethyl hydroquinone-1-hexylether (compound 1) of the hydroquinone derivative identified by the aforementioned general chemical formula (1) is dissolved at a concentration of 0.3 mg/mL was given to one group of rats daily. Simultaneously, to another groups of rats, only water was given.
(§2) There were adopted four animal groups, i.e. olive oil administration group, olive oil-plus-compound 1 administration group, carbon tetrachloride administration group, and carbon tetrachloride-plus-compound 1 administration group, in the experimental example. Each group consists of ten animals. The animals were slaughtered eight weeks after start of administration of the carbon tetrachloride to carry out an examination. The examination items include ELISA measurement of the serum antibody valency of Naofen and RT-PCR measurement of the mRNA-expression level of Naofen in the liver.

[2] = test system: rat model with carbon tetrachloride-induced liver cirrhosis; experiment: Rat model with carbon tetrachloride-induced liver cirrhosis, Experimental Example 2 (compound 1 0.1 mg/mL in potable water); assay type: in vivo; settings: for HA / ALB / ALT / AST / T-Bil: blood; for HA / ALB / ALT / AST / T-Bil / Body weight / Hepatic relative weight / Pancreatic relative weight / Number of animals with ascites retention: n = 10
Experimental: as §1, §2
An experimental examination was carried out with a rat model with carbon tetrachloride-induced liver cirrhosis in the same manner as the aforementioned experimental Example 1 except for use of the compound 1 with a concentration of 0.1 mg/mL. The examination includes measurements of some hepatic damage indexes such as blood AST, ALT, albumin (ALB) and total bilirubin (T-Bil), measurement of hyaluronan (HA) concentration serving as a maker of hepatic fibrosis, autopsy finding, measurements of body weight and organ weight, measurements of expression levels of TGF-β1 mRNA and type-I collagen mRNA in biologic cells by RT-PCR, and a histopathologic inspection.
The examination results of measurements of the liver weight, spleen weight, and number of animals with ascites retention are shown in Table 3. FIGS. 4 and 5 are photographs of hepatic tissues taken by using a Masson staining method and an immunohistochemical staining method (A: olive oil administration case, B: carbon tetrachloride administration case, C: olive oil-plus-compound 1 administration case, and D: carbon tetrachloride-plus-compound 1 administration case; and horizontal line on the bottom right: 100 μm).

[3] = HX (+) group, 0.3 mg/mL in potable water, 8 weeks, total 7 animals
[4] = CCl4 + Compound 1 0.1 mg/mL in potable water, 8 weeks, mean ± SD
[5] = CCl4 + compound 1 0.1 mg/mL, result in words
[6] = Olive Oil + Compound 1 0.1 mg/mL in potable water, 8 weeks, mean ± SD
[7] = Olive Oil + Compound 1 0.1 mg/mL in potable water, 8 weeks

CCCCCCOc1cc(C)c(O)c(C)c1C [Compound 1, 2,3,5-trimethyl hydroquinone-1-hexylether] was tested, and the “increase in mRNA-expression level of Naofen in the liver (RT-PCR)” value ([1]; CCl4 + compound 1 0.3 mg/mL in potable water, weeks 6(+), weeks 8(+), FIG. 1) was “suppressed”, the “number of animals with serum antibody valency of Naofen 4 < V < 16 (ELISA)” value [1, 3] was 1 and the “number of animals with serum antibody valency of Naofen V <= 4 (ELISA)” value [1, 3] was 4. For the same compound, the “number of animals with serum antibody valency of Naofen V >= 16 (ELISA)” value [1, 3] was 2, the “abnormality in olive oil-plus-compound 1 administration group” value ([1]; olive oil + compound 1 0.3 mg/mL in potable water, 8 weeks) was “no appreciable abnormality” and the “antibody valency increase more than 16 times, compound 1 group (+) versus group (−), Fischer direct probability” value ([1]; serum antibody valency of Naofen, 0.3 mg/mL in potable water) was “significantly fewer”. The HA ([2]; CCl4 + Compound 1 0.1 mg/mL in potable water, 8 weeks, marker of hepatic fibrosis, mean ± SD) was 237.7 ± 36.6*^+ ng/mL, the ALB [2, 4] was 3.8 ± 0.2*^+ g/dL and the ALT [2, 4] was 422.4 ± 60.5**^++ IU/L. For the same compound, the AST [2, 4] was 603.6 ± 126.3**^++ IU/L, the T-Bil [2, 4] was 0.03 ± 0.02^+ mg/dL and the Body weight [2, 4] was 240.8 ± 8.7 g. The Hepatic relative weight [2, 4] was 16.1 ± 1.8^+ g (per 100 grams of body weight), the Pancreatic relative weight [2, 4] was 0.28 ± 0.01^+ g (per 100 grams of body weight) and the “Number of animals with ascites retention” value ([2]; CCl4 + Compound 1 0.1 mg/mL in potable water, 8 weeks) was 1. The “increase in TGF-β1 mRNA-expression level in the liver (RT-PCR)” value ([2]; CCl4 + compound 1 0.1 mg/mL, FIG. 2) was “suppressing increase”, the “increase in type-I collagen mRNA-expression level in the liver (RT-PCR)” value ([2]; CCl4 + compound 1 0.1 mg/mL, FIG. 3) was “suppressing increase” and the “accumulation of fibrous tissue (histopathologic inspection, Masson staining)” value ([2]; CCl4 + compound 1 0.1 mg/mL, hepatic tissue, FIG. 4) was “suppressed”. The “expression of TGF-β1 (histopathologic inspection, immunohistochemical staining)” value ([2]; CCl4 + compound 1 0.1 mg/mL, hepatic tissue, FIG. 5) was “suppressed”, the “increase in ALT due to administration of carbon tetrachloride” value [2, 5] was “suppressing increase” and the “increase in AST due to administration of carbon tetrachloride” value [2, 5] was “suppressing increase”. For the same compound, the “increase in hyaluronan concentration due to administration of carbon tetrachloride” value [2, 5] was “suppressing increase”, the ALB [2, 6] was 4.3 ± 0.1 g/dL and the ALT [2, 6] was 93.7 ± 34.1 IU/L. For the same compound, the AST [2, 6] was 192.7 ± 93.4 IU/L, the HA [2, 6] was 136.7 ± 16.6 ng/mL and the T-Bil [2, 7] was 0 mg/dL. For the same compound, the Body weight [2, 6] was 361.5 ± 1.5 g, the Hepatic relative weight [2, 6] was 14.8 ± 1.5 g (per 100 grams of body weight) and the Pancreatic relative weight [2, 6] was 0.20 ± 0.01 g (per 100 grams of body weight). For the same compound, the “Number of animals with ascites retention” value [2, 7] was 0 and the “abnormality in olive oil-plus-compound 1 administration group” value ([2]; olive oil + compound 1 0.1 mg/mL in potable water, 8 weeks) was “no appreciable abnormality”.
